Results published in US11247994B2, “6-dithio-substituted-2′-deoxyguanosine compound, preparation method thereof and use thereof” (ZHEJIANG UNIVERSITY, priority 2018, dated 2022).

Columns and labels:
[1] = Blood biochemical analysis and HE staining of tissues in HCT116 tumor-bearing nude mice; assay type: in vivo; settings: tail vein once every two days, 12 times, blood 48 hours after the last treatment
Description: We took human colon cancer cell line HCT116 as the research object, and established a subcutaneous transplanted tumor model of human colon cancer in 32 immunodeficient nude mice. The 24th generation HCT116 cells in logarithmic growth phase were digested with pancreatin to prepare a single-cell suspension, and 1×10^7 cells were inoculated subcutaneously in the right armpit of male nude mice about 5 weeks old. After inoculation, cyclophosphamide (100 mg/kg) was injected intraperitoneally for two consecutive days. […] On the 20th day after colon cancer cell HCT116 was implanted subcutaneously, nude mice were divided into 7 groups by a random number table method, including a test drug group, a positive control group and a blank control group. Specifically, group A: the compound A was administrated; Group B: the compound B was administrated; Group C: the compound C was administrated; Group D: the compound D was administrated; Group E: the compound 6-thio-DG was administrated; Group F: the compound PX-12 was administrated; Group G: blank group, without administration of any compound. Except group C with 3 rats and group G with 4 rats, all other 5 groups had 5 rats, they mice were labeled and injected by tail vein once every two days for 24 days, 12 times, with the dose of compound A being 2 mg/kg for the first 8 times and 10 mg/kg for the last 4 times, and the dosages of other drugs being the same molar weights. The tumor volume was calculated by taking the length of the tumor as the longest diameter and the width as the corresponding vertical diameter, and the tumor volume V=(length×width^2) mm^3/2. 48 hours after the last treatment, blood was taken from the eyes, and then the animals were killed. Blood was centrifuged to get the supernatant, and then blood biochemical analysis was performed. Paraffin embedded sections of fixed tissues were stained with HE. The tumor mass in a frozen tissue was sectioned in a frozen state, and then stained by DAPI and TUNEL to judge the apoptosis of the tumor tissue in nude mice.

TrxR/Trx-1 = target: T1, TrxR/Trx-1 (Homo sapiens, UniProt P10599); assay: Ellman test, inhibition of TrxR/Trx-1 activity; assay type: biochemical; settings: read-out: TrxR/Trx-1 IC50
T1 sequence (P10599 2-105 limits assumed): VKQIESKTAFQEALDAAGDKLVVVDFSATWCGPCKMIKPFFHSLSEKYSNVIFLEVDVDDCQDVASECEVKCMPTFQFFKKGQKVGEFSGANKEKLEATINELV
Excerpt: Ellman Test—Inhibitory Effect of 6-dithio-substituted-2′-deoxyguanosine Derivative Analogues on TrxR/Trx-1 Activity
A TrxR/TR experiment based on the Ellman reaction was used to determine the inhibitory activity of candidate compounds. Ellman reaction is that 5,5′-dithiobis (2-nitrobenzoic acid) (DTNB) reacts with sulfhydryl (—SH) to form a yellow substance with absorption at 412 nm. The increase of absorption can be equivalent to the decrease of NADPH mediated by TrxR, thus further judging the activity of TrxR/Trx-1. All experiments were carried out on 96-well plates. Before the start of the enzyme reaction, five groups of corresponding test compound stock solutions with different concentrations were prepared. In the TrxR/Trx-1 reaction, a total volume per well was 60 μL, including 100 mM HEPES, 5 mM EDTA (HE buffer, pH 7.5), 1 mM NADPH, 1.0 μM TrxR, 0.8 μM Trx-1, 2.5 mg/mL bovine insulin and the required concentration of compounds to be tested. No compound to be tested was added to the control group. No compound to be tested, TrxR and Trx-1 were added in the blank group. The plate was shaken on an oscillator for 30 seconds to fully mix the reactants. After incubation at 37° C. for 30 min, 100 μL of the prepared mixture containing 6 M guanidine hydrochloride, 50 mm Tris and 10 mm DTNB was added to terminate the reaction. After 15 minutes of incubation, the absorbance was measured at 412 nm. Finally, TrxR/Trx-1 activity %=(Atest−Akb)/(Acontrol−Akb), that is, the relative percentage of TrxR/Trx-1 activity was the activity inhibited by adding 2′-deoxyguanosine derivatives relative to the activity without 2′-deoxyguanosine derivatives. The data were fitted into a concentration response curve with a variable slope, and the IC50 value was calculated from the curve.

With CC(C)SSc1nc(N)nc2c1ncn2[C@H]1C[C@H](O)[C@@H](CO)O1 [D, 6-(isopropyldithio)-2′-deoxyguanosine] the Alanine aminotransferase [1] was 28.2 U/L, the Albumin [1] was 25.0 g/L and the Alkaline phosphatase [1] was 31.5 U/L. The Aspartate aminotransferase [1] was 122.2 U/L, the BUN [1] was 8.80 mmol/L and the Chloride ion [1] was 115.3 mmol/L. It also gave a Creatine kinase [1] of 1597 U/L, a Creatinine [1] of -3.0 µmol/L and a Glucose [1] of 3.51 mmol/L. It also gave a Potassium ion [1] of 6.43 mmol/L, a Sodium ion [1] of 157.5 mmol/L and a Total bilirubin [1] of -1.00 µmol/L. It also gave a Total cholesterol [1] of 3.21 mmol/L, a Total protein [1] of 54.2 g/L and a Triglyceride [1] of 0.70 mmol/L. The IC50 (TrxR/Trx-1) was 4.26 µM.
